The target in this experiment is T1, Human complement C1s enzyme (Homo sapiens, UniProt P09871).
T1 construct: purified from human serum, Complement Technology, Inc; purchased Complement Technology, Inc; host or cells: human serum (plasma-derived native protein)
T1 sequence (P09871 438-688 limits assumed): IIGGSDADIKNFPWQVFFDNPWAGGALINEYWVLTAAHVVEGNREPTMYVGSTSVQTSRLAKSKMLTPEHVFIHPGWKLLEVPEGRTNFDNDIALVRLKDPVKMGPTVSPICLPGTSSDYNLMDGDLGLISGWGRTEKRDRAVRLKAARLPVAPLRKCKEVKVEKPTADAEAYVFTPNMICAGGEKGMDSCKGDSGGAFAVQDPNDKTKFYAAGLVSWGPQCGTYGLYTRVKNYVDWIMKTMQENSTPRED
T1 sequence (P09871 16-437 partner limits assumed): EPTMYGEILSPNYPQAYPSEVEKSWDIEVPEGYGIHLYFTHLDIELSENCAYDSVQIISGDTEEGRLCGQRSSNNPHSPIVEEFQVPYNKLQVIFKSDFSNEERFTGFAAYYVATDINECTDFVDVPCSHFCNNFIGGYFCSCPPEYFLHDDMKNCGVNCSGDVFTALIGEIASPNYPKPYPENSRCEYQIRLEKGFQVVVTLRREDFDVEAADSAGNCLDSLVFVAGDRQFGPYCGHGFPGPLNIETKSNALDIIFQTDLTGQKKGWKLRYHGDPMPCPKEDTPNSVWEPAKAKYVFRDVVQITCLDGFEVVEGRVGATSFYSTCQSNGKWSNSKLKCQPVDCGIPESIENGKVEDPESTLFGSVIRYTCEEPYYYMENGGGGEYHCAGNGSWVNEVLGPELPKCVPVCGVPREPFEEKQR
The experiment is described as follows: Human C1s enzyme assay. It counts as biochemical. The conditions noted are these: human complement C1s enzyme 1.16 nM, substrate Z-L-Lys-SBzl, A405; read-out: IC50 (Stars). The gist of the method:
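Serum-purified human C1s (1.16 nM final) preincubated 5 min at room temperature with compound in 50 mM Tris, 1 M NaCl, pH 7.5. Z-L-Lys-SBzl and DTNB added at 100 μM each; A405 recorded every 30 s. IC50 from nonlinear regression of reaction rates versus compound concentration.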

IC50 data for 22 compounds are collected here from patent US20260184707A1, “PHARMACEUTICAL COMPOUNDS FOR THE TREATMENT OF COMPLEMENT MEDIATED DISORDERS” (ALEXION PHARMACEUTICALS, INC., priority 2022, published 2026).

pIC50: −log10 of the molar value.

As usually defined, the pIC50 is the IC50 on a negative log10 scale, so that one unit is a factor of ten.

As to `CO[C@@H]1CO[C@H]2[C@@H]1OC[C@H]2Oc1ccc(-c2ncc(N[C@H](C)c3ccc4oc5ccccc5c4c3)c(=O)n2CC(=O)NCc2cc3cnccc3[nH]2)cc1` [Compound 238, N-((1H-pyrrolo[3,2-c]pyridin-2-yl)methyl)-2-(5-(((R)-1-(dibenzo[b,d]furan-2-yl)ethyl)-amino)-2-(4-(((3R,3aR,6R, 6aR)-6-methoxyhexahydrofuro [3,2-b]furan-3-yl)oxy)phenyl)-6-oxopyrimidin-1(6H)-yl)acet-amide], the negative logarithm of the IC50 (pIC50) is above 7.00.
With `O=C(Cn1c(N2CCCCC2)ncc(NCc2ccc3oc4ccccc4c3c2)c1=O)NCc1cc2cnccc2[nH]1` [Compound 261, N-((1H-pyrrolo[3,2-c]pyridin-2-yl)methyl)-2-(5-((dibenzo [b,d]furan-2-ylmethyl)amino)-6-oxo-2-(piperidin-1-yl)pyrimi-din-1(6H)-yl)acetamide] the figure was above 7.00; with `O=C(Cn1c(-c2ccccc2)ncc(NCCCc2ccc(OC(F)F)cc2)c1=O)NCc1cc2cnccc2[nH]1` [Compound 34, N-((1H-pyrrolo[3,2-c]pyridin-2-yl)methyl)-2-(5-((3-(4-(difluoromethoxy)phenyl)prop-yl)amino)-6-oxo-2-phenyl-pyrimidin-1(6H)-yl)acetamide], above 7.00.
With `CC(=O)N1CCN(c2ncc(N[C@H](C)c3ccc4oc5ccccc5c4c3)c(=O)n2CC(=O)NCc2cc3cnccc3[nH]2)CC1` [Compound 466, (R)-N-((1H-pyrrolo[3,2-c]pyridin-2-yl)methyl)-2-(2-(4-acetylpiperazin-1-yl)-5-((1-(dibenzo[b,d]furan-2-yl)ethyl)-amino)-6-oxopyrimidin-1(6H)-yl)acetamide] the figure was above 7.00.
For `O=C(Cn1c(N2CCn3c(nnc3C(F)(F)F)C2)ncc(NCCCc2ccccc2)c1=O)NCc1cc2cnccc2[nH]1` [Compound 301, N-((1H-pyrrolo[3,2-c]pyridin-2-yl)methyl)-2-(6-oxo-5-((3-phenylpropyl)amino)-2-(3-(trifluoromethyl)-5,6-dihydro-[1,2,4]triazolo[4,3-a]pyrazin-7(8H)-yl)pyrimidin-1(6H)-yl)-acetamide] the value was above 7.00.
Take `O=C(Cn1c(-c2ccccc2F)ncc(N[C@H](CF)c2ccc3oc4ccccc4c3c2)c1=O)NCc1cc2cnccc2[nH]1` (single isomer, unassigned) [Compound 375, (S*)—N-((1H-pyrrolo[3,2-c]pyridine-2-yl)methyl)-2-(5-((1-(dibenzo[b,d]furan-2-yl)-2-fluoroethyl)amino)-2-(2-fluorophenyl)-6-oxopyrimidin-1(6H)-yl)acetamide]: the pIC50 was above 7.00.
As to `C[C@@H](Nc1cnc(N2CCCCC2)n(CC(=O)NCc2cc3cnccc3[nH]2)c1=O)c1ccc(Oc2ccccc2)cc1` [Compound 448, (R)-N-((1H-pyrrolo[3,2-c]pyridin-2-yl)methyl)-2-(6-oxo-5-((1-(4-phenoxyphenyl)-ethyl)amino)-2-(piperidin-1-yl)pyrimidin-1(6H)-yl)acet-amide], the negative-log IC50 (pIC50) was 6.00 to 7.00.
With `O=C(Cn1c(N2CCOCC2)ncc(NC(=O)c2coc(-c3ccccc3)n2)c1=O)NCc1cc2cnccc2[nH]1` [Compound 413, N-(1-(2-(((1H-pyrrolo[3,2-c]pyridin-2-yl)methyl)amino)-2-oxoethyl)-2-morpholino-6-oxo-1,6-dihydropyrimidin-5-yl)-2-phenyloxazole-4-carbox-amide] the figure was above 7.00; with `O=C(Cn1c(-c2ccccc2)ncc(NC(=O)c2ccc(-c3ccccc3)s2)c1=O)Nc1nc2cnccc2s1` [Compound 235, N-(6-ox0-1-(2-oxo-2-(thiazolo [4,5-c]pyridin-2-ylamino)-ethyl)-2-phenyl-1,6-dihydro-pyrimidin-5-yl)-5-phenylthio-phene-2-carboxamide], below 6.00.
`C[C@@H](Nc1cnc(N2CCCC(O)C2)n(CC(=O)NCc2cc3cnccc3[nH]2)c1=O)c1ccc2oc3ccccc3c2c1` (stereo partly drawn) [Compound 370, N-((1H-pyrrolo[3,2-c]pyridin-2-yl)methyl)-2-(5-(((R)-1-(dibenzo[b,d]furan-2-yl)ethyl)-amino)-2-(3-hydroxypiperidin-1-yl)-6-oxopyrimidin-1(6H)-yl)acetamide]: the pIC50 is 6.00 to 7.00.
For `O=C(Cn1c(-c2ccccc2)ncc(NCc2ccc(-c3ccccc3)s2)c1=O)NCc1cc2cnccc2[nH]1` [Compound 258, N-((1H-pyrrolo[3,2-c]pyridine-2-yl)methyl)-2-(6-oxo-2-phenyl-5-(((5-phenylthiophen-2-yl)methyl)amino)pyrimidin-1(6H)-yl)acetamide], the pIC50 was above 7.00.
For `O=C(Cn1cncc(NCc2cc3ccccc3o2)c1=O)NCc1cc2cnccc2[nH]1` [Compound 486, N-((1H-pyrrolo[3,2-c]pyridin-2-yl)methyl)-2-(5-((benzofuran-2-ylmethyl)amino)-6-oxopyr-imidin-1(6H)-yl)acetamide] the value was above 7.00; for `O=C(Cn1c(-c2ccc(Cl)cc2)ncc(NCc2ccc3oc4ccccc4c3c2)c1=O)NCc1cc2cnccc2[nH]1` [Compound 118, N-((1H-pyrrolo[3,2-c]pyridin-2-yl)methyl)-2-(2-(4-chloro-phenyl)-5-((dibenzo[b,d]furan-2-ylmethyl)amino)-6-oxopyr-imidin-1(6H)-yl)acetamide], above 7.00; for `C[C@@H](Nc1cnc(-n2cccc2)n(CC(=O)NCc2cc3cnccc3[nH]2)c1=O)c1ccc2oc3ccccc3c2c1` [Compound 397, (R)-N-((1H-pyrrolo[3,2-c]pyridin-2-yl)methyl)-2-(5-((1-(dibenzo[b,d]furan-2-yl)ethyl)-amino)-6-oxo-2-(1H-pyrrol-1-yl)pyrimidin-1(6H)-yl)acet-amide], above 7.00.
For `O=C(Cn1c(N2CCOCC2)cnc(NC(=O)c2coc(-c3ccccc3)n2)c1=O)NCc1cc2cnccc2[nH]1` [Compound 492, N-(4-(2-(((1H-Pyrrolo[3,2-c]pyridine-2-yl)methyl)amino)-2-oxoethyl)-5-morpholino-3-oxo-3,4-dihydropyrazin-2-yl)-2-phenyloxazole-4-carboxamide] the value was above 7.00; for `O=C(Cn1c(-c2ccccc2)cnc(NCCCc2ccccc2)c1=O)N[C@H](CO)c1cc2cnccc2[nH]1` [Compound 13, (S)-N-(2-hydroxy-1-(1H-pyr-rolo[3,2-c]pyridin-2-yl)ethyl)-2-(2-oxo-6-phenyl-3-((3-phen-ylpropyl)amino)pyrazin-1(2H)-yl)acetamide], 6.00 to 7.00.
With `O=C(Cn1c(-c2ccccc2)ncc(Nc2ccc(Oc3ccccc3)cc2)c1=O)NCc1cc2cnccc2[nH]1` [Compound 228, N-((1H-pyrrolo[3,2-c]pyridin-2-yl)methyl)-2-(6-oxo-5-((4-phenoxyphenyl)amino)-2-phenylpyrimidin-1(6H)-yl)-acetamide] the figure was above 7.00; with `O=C(Cn1c(-c2ccccc2)ncc(NC(=O)c2nc(-c3ccccc3)cs2)c1=O)NCc1cc2cnccc2[nH]1` [Compound 208, N-(1-(2-(((1H-pyrrolo[3,2-c]pyridin-2-yl)methyl)amino)-2-oxoethyl)-6-oxo-2-phenyl-1,6-dihydropyrimidin-5-yl)-4-phen-ylthiazole-2-carboxamide], above 7.00; with `O=C(Cn1c(-c2ccccc2)ncc(NC(=O)c2ccc(Oc3ccccc3)s2)c1=O)NCc1cc2cnccc2[nH]1` [Compound 215, N-(1-(2-(((1H-pyrrolo[3,2-c]pyridine-2-yl)methyl)amino)-2-oxoethyl)-6-oxo-2-phenyl-1,6-dihydropyrimidin-5-yl)-5-phenoxythiophene-2-carboxamide], above 7.00.
In the case of `C[C@H](NC(=O)Cn1c(-c2ccccc2)cnc(NCCCc2ccccc2)c1=O)c1cc2cnccc2[nH]1` [Compound 47, (S)-N-(1-(1H-pyrrolo[3,2-c]pyridin-2-yl)ethyl)-2-(2-oxo-6-phenyl-3-((3-phenylpropyl)-amino)pyrazin-1(2H)-yl)-acetamide], the negative-log IC50 (pIC50) is below 6.00.
With `C[C@@H](Nc1cnc(N2CCC(O)C2)n(CC(=O)NCc2cc3cnccc3[nH]2)c1=O)c1ccc2oc3ccccc3c2c1` (stereo partly drawn) [Compound 369, N-((1H-pyrrolo[3,2-c]pyridin-2-yl)methyl)-2-(5-(((R)-1-(dibenzo[b,d]furan-2-yl)ethyl)-amino)-2-(3-hydroxypyrroli-din-1-yl)-6-oxopyrimidin-1(6H)-yl)acetamide] the figure was 6.00 to 7.00; with `Cc1cccc(-c2ncc(N[C@H](C)c3ccc4oc5ccccc5c4c3)c(=O)n2CC(=O)NCc2cc3cnccc3[nH]2)c1F` [Compound 434, (R)-N-((1H-pyrrolo[3,2-c]pyridin-2-yl)methyl)-2-(5-((1-(dibenzo[b,d]furan-2-yl)ethyl)amino)-2-(2-fluoro-3-methylphenyl)-6-oxopyr-imidin-1(6H)-yl)acetamide], above 7.00.
